Test results as given in patent US20080090845A1, “Haloalkyl-substituted pyrimidinone derivatives” (Neurogen Corporation, priority 2006, published 2008).

Legend:
human capsaicin receptor = target: T1, human capsaicin receptor (Homo sapiens, UniProt Q8NER1); test: Calcium mobilization assay, determination of antagonist activity (Example 6); type: cell-based; conditions: cells expressing human capsaicin receptor, capsaicin-induced fluorescence response; read-out: IC50
T1 construct: pBK-CMV expression construct encoding the full length human capsaicin receptor; expressed in transfected cells
Method: A cDNA encoding full length human capsaicin receptor (SEQ ID NO:1, 2 or 3 of U.S. Pat. No. 6,482,611) is subcloned in the plasmid pBK-CMV (Stratagene, La Jolla, Calif.) for recombinant expression in mammalian cells.
Human embryonic kidney (HEK293) cells are transfected with the pBK-CMV expression construct encoding the full length human capsaicin receptor using standard methods. The transfected cells are selected for two weeks in media containing G418 (400 μg/ml) to obtain a pool of stably transfected cells. Independent clones are isolated from this pool by limiting dilution to obtain clonal stable cell lines for use in subsequent experiments.
Cells transfected with expression plasmids (as described in Example 4) and thereby expressing human capsaicin receptor are seeded and grown to 70-90% confluency in FALCON black-walled, clear-bottomed 96-well plates (#3904, BECTON-DICKINSON, Franklin Lakes, N.J.). The culture medium is emptied from the 96 well plates and FLUO-3 AM calcium sensitive dye (Molecular Probes, Eugene, Oreg.) is added to each well (dye solution: 1 mg FLUO-3 AM, 440 μl DMSO and 440 μl 20% pluronic acid in DMSO diluted 1:250 in Krebs-Ringer HEPES (KRH) buffer (25 mM HEPES, 5 mM KCl, 0.96 mM NaH2PO4, 1 mM MgSO4, 2 mM CaCl2, 5 mM glucose, 1 mM probenecid, pH 7.4), 50 μl diluted solution per well). Plates are covered with aluminum foil and incubated at 37° C. for 1-2 hours in an environment containing 5% CO2. After the incubation, the dye is emptied from the plates, and the cells are washed once with KRH buffer, and resuspended in KRH buffer.
To measure the ability of a test compound to agonize or antagonize a calcium mobilization response in cells expressing capsaicin receptors to capsaicin or other vanilloid agonist, the EC50 of the agonist capsaicin is first determined. An additional 20 μl of KRH buffer and 1 μl DMSO is added to each well of cells, prepared as described above. 100 μl capsaicin in KRH buffer is automatically transferred by the FLIPR instrument to each well. Capsaicin-induced calcium mobilization is monitored using either FLUOROSKAN ASCENT (Labsystems; Franklin, Mass.) or FLIPR (fluorometric imaging plate reader system; Molecular Devices, Sunnyvale, Calif.) instruments. Data obtained between 30 and 60 seconds after agonist application are used to generate an 8-point concentration response curve, with final capsaicin concentrations of 1 nM to 3 μM. KALEIDAGRAPH software (Synergy Software, Reading, Pa.) is used to fit the data to the equation: y=a*(1/(1+(b/x)^c)) to determine the 50% excitatory concentration (EC50) for the response. In this equation, y is the maximum fluorescence signal, x is the concentration of the agonist or antagonist (in this case, capsaicin), a is the Emax, b corresponds to the EC50 value and c is the Hill coefficient. Determination of Agonist Activity
Test compounds are dissolved in DMSO, diluted in 20 μl KRH buffer so that the final concentration of test compounds in the assay well is between 1 μM and 5 μM, and added to cells prepared as described above. The 96 well plates containing prepared cells and test compounds are incubated in the dark, at room temperature for 0.5 to 6 hours. It is important that the incubation not continue beyond 6 hours. Just prior to determining the fluorescence response, 100 μl capsaicin in KRH buffer at twice the EC50 concentration determined as described above is automatically added by the FLIPR instrument to each well of the 96 well plate for a final sample volume of 200 μl and a final capsaicin concentration equal to the EC50. The final concentration of test compounds in the assay wells is between 1 μM and 5 μM. […] The concentration of antagonist required to provide a 50% decrease, relative to the response observed in the presence of capsaicin and without antagonist, is the IC50 for the antagonist, and is preferably below 1 micromolar, 100 nanomolar, 10 nanomolar or 1 nanomolar.

VR = VR (Homo sapiens, UniProt Q8NER1); conditions: typical value, background section; cited from earlier work
Sequence of VR (Q8NER1 whole entry): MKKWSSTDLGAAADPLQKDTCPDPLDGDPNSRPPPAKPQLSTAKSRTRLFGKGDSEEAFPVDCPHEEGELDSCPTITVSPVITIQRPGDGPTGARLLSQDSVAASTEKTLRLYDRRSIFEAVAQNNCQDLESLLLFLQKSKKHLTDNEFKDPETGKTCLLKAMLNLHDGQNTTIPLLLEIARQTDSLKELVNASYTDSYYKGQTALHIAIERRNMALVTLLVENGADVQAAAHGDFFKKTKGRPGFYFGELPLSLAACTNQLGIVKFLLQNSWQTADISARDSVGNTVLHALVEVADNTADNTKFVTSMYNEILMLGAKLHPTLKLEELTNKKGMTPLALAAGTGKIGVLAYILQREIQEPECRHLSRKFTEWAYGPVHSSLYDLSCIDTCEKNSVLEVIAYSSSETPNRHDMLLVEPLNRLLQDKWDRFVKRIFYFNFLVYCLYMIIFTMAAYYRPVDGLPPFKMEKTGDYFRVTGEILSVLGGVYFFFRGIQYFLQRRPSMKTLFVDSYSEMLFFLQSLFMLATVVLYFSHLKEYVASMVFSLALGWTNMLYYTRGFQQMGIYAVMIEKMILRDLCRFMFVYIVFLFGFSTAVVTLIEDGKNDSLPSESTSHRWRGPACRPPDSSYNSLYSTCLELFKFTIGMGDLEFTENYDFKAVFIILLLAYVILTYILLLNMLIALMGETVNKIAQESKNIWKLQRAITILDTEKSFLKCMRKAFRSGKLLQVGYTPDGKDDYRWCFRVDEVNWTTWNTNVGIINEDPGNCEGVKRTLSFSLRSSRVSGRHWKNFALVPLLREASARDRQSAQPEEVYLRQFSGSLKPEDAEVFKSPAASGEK

T1 sequence (Q8NER1 whole entry): as above

Q: Which IC50 (human capsaicin receptor) does the source give for `CCn1cnc2c(=O)n(-c3ccc(C#N)cc3)c(CCC(C)C(F)(F)F)nc21` (centres unmarked) [Compound 34, 4-[9-ethyl-6-oxo-2-(4,4,4-trifluoro-3-methylbutyl)-6,9-dihydro-1H-purin-1-yl]benzonitrile] here?
A: ≤ 0.1 µM

Q: Which IC50 (human capsaicin receptor) does the source give for `CC(Cc1nc2cccnc2c(=O)n1-c1ccc(Cl)cc1)CC(F)(F)F` (centres unmarked) [Compound 35, 3-(4-chlorophenyl)-2-(4,4,4-trifluoro-2-methylbutyl)pyrido[3,2-d]pyrimidin-4(3H)-one] here?
A: ≤ 0.1 µM

Q: With `CCn1cnc2c(=O)n(-c3ccc(C#N)cc3)c(CC(C)C(F)(F)F)nc21` (centres unmarked) [Compound 36, 4-[9-ethyl-6-oxo-2-(3,3,3-trifluoro-2-methylpropyl)-6,9-dihydro-1H-purin-1-yl]benzonitrile] as the molecule, how does the IC50 (human capsaicin receptor) read?
A: ≤ 0.1 µM

Q: With `CC(Cc1nc2c(ncn2C)c(=O)n1-c1ccc(C#N)cc1)C(F)(F)F` (centres unmarked) [Compound 37, 4-[9-methyl-6-oxo-2-(3,3,3-trifluoro-2-methylpropyl)-6,9-dihydro-1H-purin-1-yl]benzonitrile] as the molecule, how does the IC50 (human capsaicin receptor) read?
A: ≤ 0.1 µM

Q: With `Cl.Cl.Cl.Cl.Cl.Cl.N.N.N.N.N.N.N.N.N.N.N.N.N.N.[O-2].[O-2].[Ru+3].[Ru+3].[Ru+4]` [ruthenium red] as the molecule, how does the Ki (VR) read?
A: ≥ 140 µM
